Earlier results on five compounds are cited in patent US20230023005A1, “IMPROVING THE PERFORMANCE OF PIGMENT-BASED DYES BY USING A PRETREAMENT AGENT” (Henkel AG & Co. KGaA, priority 2019, published 2023).

For series [1] the following is noted: 25° C.
The conditions of series [2]: 5% solution in water.

Turning to `O=S(=O)([O-])c1ccc(N=Nc2c(O)ccc3ccccc23)cc1.[Na+]` [Acid Orange 7, sodium salt of 4-[(2-hydroxy-1-naphthyl)azo]benzene sulphonate], in series [1], the solubility in water entry is recorded as “more than 7 g/L”. Consider `Nc1cc(S(=O)(=O)[O-])cc2cc(S(=O)(=O)[O-])c(N=Nc3ccccc3)c(O)c12.[Na+].[Na+]` [Acid Red 33, diantrium salt of 5-amino-4-hydroxy-3-(phenylazo)-naphthalene-2,7-disulphonate], for which, in series [1], the solubility in water is recorded as 2.5 g/L. With `O=C([O-])c1c(Cl)c(Cl)c(Cl)c(Cl)c1-c1c2c(Br)cc(=O)c(Br)c-2oc2c(Br)c(O)cc(Br)c12.O=C([O-])c1c(Cl)c(Cl)c(Cl)c(Cl)c1-c1c2c(Br)cc(=O)c(Br)c-2oc2c(Br)c(O)cc(Br)c12.[Na+].[Na+]` [Acid Red 92, disodium salt of 3,4,5,6-tetrachloro-2-(1,4,5,8-tetrabromo-6-hydroxy-3-oxoxanthen-9-yl)benzoic acid], in series [1], the solubility in water result is given as “greater than 10 g/L”. For `O=C([O-])C1=NN(c2ccc(S(=O)(=O)[O-])cc2)C(=O)C1N=Nc1ccc(S(=O)(=O)[O-])cc1.[Na+].[Na+].[Na+]` (centres unmarked) [Acid Yellow 23, trisodium salt of 4,5-dihydro-5-oxo-1-(4-sulfophenyl)-4-((4-sulfophenyl)azo)-1H-pyrazole-3-carboxylic acid], in series [1], the “solubility in water” value was “highly soluble in water”. Turning to `O=P([O-])(O)O.[K+]` [Potassium dihydrogen phosphate], the “pH value of solution in water” value in series [2] is recorded as 4.4.
